Experimental data reported in patent US20260374751A1, “AMIDE PRODRUGS AND USES THEREOF” (Autobahn Therapeutics, Inc., priority 2022, published 2026).

Each compound was assayed against T1, recombinant human FAAH (rhFAAH) (Homo sapiens, UniProt O00519) (assay: FAAH substrate evaluation: formation of acid metabolite by purified recombinant human FAAH (rhFAAH)). Conditions: role: substrate; 1 μM test compound, 0.5 ng/μL rhFAAH, 1.25% ethanol or 1 μM PF-3845 (FAAH inhibitor), 0.1% BSA, Tris-EDTA pH 8.0, room temperature, 0-60 minutes.
T1 sequence (O00519 1-579): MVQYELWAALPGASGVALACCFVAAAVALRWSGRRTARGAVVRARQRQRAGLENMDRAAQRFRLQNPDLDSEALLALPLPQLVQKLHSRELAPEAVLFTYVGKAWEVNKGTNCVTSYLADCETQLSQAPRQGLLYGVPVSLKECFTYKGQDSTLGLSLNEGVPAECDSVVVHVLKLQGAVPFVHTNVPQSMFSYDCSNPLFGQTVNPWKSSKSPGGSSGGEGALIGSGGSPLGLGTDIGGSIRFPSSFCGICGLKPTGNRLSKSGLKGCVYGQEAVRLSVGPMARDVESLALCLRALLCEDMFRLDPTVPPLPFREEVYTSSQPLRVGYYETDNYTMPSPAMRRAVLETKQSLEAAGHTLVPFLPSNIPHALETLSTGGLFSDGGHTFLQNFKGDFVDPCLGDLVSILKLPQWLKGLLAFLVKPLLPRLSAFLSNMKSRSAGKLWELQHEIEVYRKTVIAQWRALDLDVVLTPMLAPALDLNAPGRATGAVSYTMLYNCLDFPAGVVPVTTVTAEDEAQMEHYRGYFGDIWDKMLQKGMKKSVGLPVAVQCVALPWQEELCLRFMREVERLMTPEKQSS
Type: biochemical
Experimental: Purified recombinant human FAAH (rhFAAH) was purchased from Cayman Chemical (Ann Arbor, MI, USA). The total volume for each incubation was 400 μL containing a final 0.5 ng/μL rhFAAH, 1 μM test compound, 1.25% ethanol or 1 μM PF-3845 (FAAH inhibitor), and 0.1% bovine serum albumin in Tris-EDTA buffer at pH 8.0). The incubation was conducted at room temperature. At 0, 5, 15, 30 and 60 minutes, an aliquot of 30 μL reaction mixtures was removed and mixed with 300 μL acetonitrile containing 5 ng/mL terfenadine and 10 ng/mL tolbutamide as internal standards to quench the reaction. The resulting mixture was centrifuged at 4000 rpm, 4 °C for 15 minutes, and 100 μL supernatant was ready for LC-MS/MS analysis to measure the formation of acid metabolite.
Acquity Ultra Performance LC system from Waters was used for sample analysis. The chromatography was performed on a reverse phase Kinetex 2.6 μm C18 column, 2.1×30 mm, 100 Å. The mobile phase A comprised of 0.1% formic acid in water and mobile phase B comprised of 0.1% formic acid in acetonitrile with a 1.5 min run time at the flow rate of 0.9 mL/min for the acid metabolite of test compounds. The mass spectrometer (API-5500 and API Q Trap 4000 Applied Biosystems/MDS SCIEX Instruments, Framingham, MA, USA) was operated under ESI positive or negative ion MRM mode.
The formation of acid metabolite was monitored and quantified using one calibration point of 1 μM. The observed rate constant (ke) for the acid metabolite formation was calculated by plotting the metabolite concentration versus time of incubation with the slope being ke and is shown in Table 1.

Row | Structure (SMILES) | ke (observed rate constant for the acid metabolite formation)
1 | CCCc1ccc(COc2ccc3c(c2)CCC(CN2CC(C(=O)NCCCF)C2)=C3C)c(OC)c1 [Compound 5, N-(3-fluoropropyl)-1-((6-((2-methoxy-4-propylbenzyl)oxy)-1-methyl-3,4-dihydronaphthalen-2-yl)methyl)azetidine-3-carboxamide] | A (ke is more than or equal to 1.0)
2 | CCCc1ccc(COc2ccc3c(c2)CCC(CN2CC(C(=O)NCC4CC4)C2)=C3C)c(OC)c1 [Compound 7, N-(cyclopropylmethyl)-1-((6-((2-methoxy-4-propylbenzyl)oxy)-1-methyl-3,4-dihydronaphthalen-2-yl)methyl)azetidine-3-carboxamide] | A (ke is more than or equal to 1.0)
3 | CCCNC(=O)C1CN(CC2=C(C)c3ccc(OCc4ccc(CCC)cc4OC)cc3CC2)C1 [Compound 18, 1-((6-((2-methoxy-4-propylbenzyl)oxy)-1-methyl-3,4-dihydronaphthalen-2-yl)methyl)-N-propylazetidine-3-carboxamide] | A (ke is more than or equal to 1.0)
4 | CCCc1ccc(COc2ccc3c(c2)CCC(CN2CC(C(=O)N(C)C)C2)=C3C)c(OC)c1 [Compound 23, 1-((6-((2-methoxy-4-propylbenzyl)oxy)-1-methyl-3,4-dihydronaphthalen-2-yl)methyl)-N,N-dimethylazetidine-3-carboxamide] | B (ke is less than 1.0 and more than 0)
5 | CCCc1ccc(COc2ccc3c(c2)CCC(CN2CC(C(=O)N(C)CC)C2)=C3C)c(OC)c1 [Compound 17, N-ethyl-1-((6-((2-methoxy-4-propylbenzyl)oxy)-1-methyl-3,4-dihydronaphthalen-2-yl)methyl)-N-methylazetidine-3-carboxamide] | C (ke is 0)
6 | CCCc1ccc(COc2ccc3c(c2)CCC(CN2CC(C(=O)Nc4cccnc4)C2)=C3C)c(OC)c1 [Compound 3, 1-((6-((2-methoxy-4-propylbenzyl)oxy)-1-methyl-3,4-dihydronaphthalen-2-yl)methyl)-N-(pyridin-3-yl)azetidine-3-carboxamide] | B (ke is less than 1.0 and more than 0)
7 | CCCc1ccc(COc2ccc3c(c2)CCC(CN2CC(C(=O)NCC(F)(F)F)C2)=C3C)c(OC)c1 [Compound 6, 1-((6-((2-methoxy-4-propylbenzyl)oxy)-1-methyl-3,4-dihydronaphthalen-2-yl)methyl)-N-(2,2,2-trifluoroethyl)azetidine-3-carboxamide] | A (ke is more than or equal to 1.0)
8 | CCCc1ccc(COc2ccc3c(c2)CCC(CN2CC(C(=O)N4CCC4)C2)=C3C)c(OC)c1 [Compound 12, azetidin-1-yl(1-((6-((2-methoxy-4-propylbenzyl)oxy)-1-methyl-3,4-dihydronaphthalen-2-yl)methyl)azetidin-3-yl)methanone] | A (ke is more than or equal to 1.0)
9 | CCCc1ccc(COc2ccc3c(c2)CCC(CN2CC(C(=O)NCC)C2)=C3C)c(OC)c1 [Compound 19, N-ethyl-1-((6-((2-methoxy-4-propylbenzyl)oxy)-1-methyl-3,4-dihydronaphthalen-2-yl)methyl)azetidine-3-carboxamide] | A (ke is more than or equal to 1.0)
10 | CCCc1ccc(COc2ccc3c(c2)CCC(CN2CC(C(=O)NCCC(F)(F)F)C2)=C3C)c(OC)c1 [Compound 11, 1-((6-((2-methoxy-4-propylbenzyl)oxy)-1-methyl-3,4-dihydronaphthalen-2-yl)methyl)-N-(3,3,3-trifluoropropyl)azetidine-3-carboxamide] | A (ke is more than or equal to 1.0)
11 | CCCCN(C)C(=O)C1CN(CC2=C(C)c3ccc(OCc4ccc(CCC)cc4OC)cc3CC2)C1 [Compound 14, N-butyl-1-((6-((2-methoxy-4-propylbenzyl)oxy)-1-methyl-3,4-dihydronaphthalen-2-yl)methyl)-N-methylazetidine-3-carboxamide] | C (ke is 0)
12 | CCCc1ccc(COc2ccc3c(c2)CCC(CN2CC(C(=O)Nc4ccncc4)C2)=C3C)c(OC)c1 [Compound 13, 1-((6-((2-methoxy-4-propylbenzyl)oxy)-1-methyl-3,4-dihydronaphthalen-2-yl)methyl)-N-(pyridin-4-yl)azetidine-3-carboxamide] | A (ke is more than or equal to 1.0)
13 | CCCCNC(=O)C1CN(CC2=C(C)c3ccc(OCc4ccc(CCC)cc4OC)cc3CC2)C1 [Compound 15, N-butyl-1-((6-((2-methoxy-4-propylbenzyl)oxy)-1-methyl-3,4-dihydronaphthalen-2-yl)methyl)azetidine-3-carboxamide] | A (ke is more than or equal to 1.0)
14 | CCCc1ccc(COc2ccc3c(c2)CCC(CN2CC(C(=O)N(C)OC)C2)=C3C)c(OC)c1 [Compound 21, N-methoxy-1-((6-((2-methoxy-4-propylbenzyl)oxy)-1-methyl-3,4-dihydronaphthalen-2-yl)methyl)-N-methylazetidine-3-carboxamide] | A (ke is more than or equal to 1.0)
15 | CCCc1ccc(COc2ccc3c(c2)CCC(CN2CC(C(=O)N[C@H](C)CC)C2)=C3C)c(OC)c1 [Compound 9, (R)—N-(sec-butyl)-1-((6-((2-methoxy-4-propylbenzyl)oxy)-1-methyl-3,4-dihydronaphthalen-2-yl)methyl)azetidine-3-carboxamide] | A (ke is more than or equal to 1.0)
16 | CCCc1ccc(COc2ccc3c(c2)CCC(CN2CC(C(=O)Nc4cccnn4)C2)=C3C)c(OC)c1 [Compound 4, 1-((6-((2-methoxy-4-propylbenzyl)oxy)-1-methyl-3,4-dihydronaphthalen-2-yl)methyl)-N-(pyridazin-3-yl)azetidine-3-carboxamide] | A (ke is more than or equal to 1.0)
17 | CCCc1ccc(COc2ccc3c(c2)CCC(CN2CC(C(=O)NOC)C2)=C3C)c(OC)c1 [Compound 20, N-methoxy-1-((6-((2-methoxy-4-propylbenzyl)oxy)-1-methyl-3,4-dihydronaphthalen-2-yl)methyl)azetidine-3-carboxamide] | A (ke is more than or equal to 1.0)
18 | CCCc1ccc(COc2ccc3c(c2)CCC(CN2CC(C(=O)N(CC)CC)C2)=C3C)c(OC)c1 [Compound 16, N,N-diethyl-1-((6-((2-methoxy-4-propylbenzyl)oxy)-1-methyl-3,4-dihydronaphthalen-2-yl)methyl)azetidine-3-carboxamide] | C (ke is 0)
19 | CCCc1ccc(COc2ccc3c(c2)CCC(CN2CC(C(=O)NC)C2)=C3C)c(OC)c1 [Compound 2, 1-((6-((2-methoxy-4-propylbenzyl)oxy)-1-methyl-3,4-dihydronaphthalen-2-yl)methyl)-N-methylazetidine-3-carboxamide] | B (ke is less than 1.0 and more than 0)
20 | CCCc1ccc(COc2ccc3c(c2)CCC(CN2CC(C(=O)N[C@@H](C)CC)C2)=C3C)c(OC)c1 [Compound 10, (S)—N-(sec-butyl)-1-((6-((2-methoxy-4-propylbenzyl)oxy)-1-methyl-3,4-dihydronaphthalen-2-yl)methyl)azetidine-3-carboxamide] | B (ke is less than 1.0 and more than 0)
21 | CCCc1ccc(COc2ccc3c(c2)CCC(CN2CC(C(=O)NC4CC4)C2)=C3C)c(OC)c1 [Compound 8, N-cyclopropyl-1-((6-((2-methoxy-4-propylbenzyl)oxy)-1-methyl-3,4-dihydronaphthalen-2-yl)methyl)azetidine-3-carboxamide] | A (ke is more than or equal to 1.0)

The compounds below were run against S1P5 (Homo sapiens, UniProt Q9H228) (assay: S1P5 receptor agonism (EC50 statement)). Conditions: not given.
Type: biochemical

Sequence of S1P5 (Q9H228 whole entry, species assumed): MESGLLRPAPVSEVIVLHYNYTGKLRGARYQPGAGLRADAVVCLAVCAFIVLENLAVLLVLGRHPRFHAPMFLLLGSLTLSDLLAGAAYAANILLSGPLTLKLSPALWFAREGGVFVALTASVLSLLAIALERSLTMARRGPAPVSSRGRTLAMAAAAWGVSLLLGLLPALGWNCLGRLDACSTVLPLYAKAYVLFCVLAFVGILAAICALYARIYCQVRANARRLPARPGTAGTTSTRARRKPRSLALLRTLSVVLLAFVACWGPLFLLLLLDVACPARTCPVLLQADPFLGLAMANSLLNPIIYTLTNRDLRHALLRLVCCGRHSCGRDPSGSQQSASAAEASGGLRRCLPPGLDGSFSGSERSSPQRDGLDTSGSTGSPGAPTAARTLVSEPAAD

Row | Structure (SMILES) | EC50
22 | CCCc1ccc(COc2ccc3c(c2)CCC(CN2CC(C(=O)O)C2)=C3C)c(OC)c1 [Compound 1, ceralifimod] | 1 nM

The compounds below were run against S1P1 (Homo sapiens, UniProt P21453) (assay: S1P1 receptor agonism (EC50 statement)). Conditions: not given.
Type: biochemical

Sequence of S1P1 (P21453 whole entry, species assumed): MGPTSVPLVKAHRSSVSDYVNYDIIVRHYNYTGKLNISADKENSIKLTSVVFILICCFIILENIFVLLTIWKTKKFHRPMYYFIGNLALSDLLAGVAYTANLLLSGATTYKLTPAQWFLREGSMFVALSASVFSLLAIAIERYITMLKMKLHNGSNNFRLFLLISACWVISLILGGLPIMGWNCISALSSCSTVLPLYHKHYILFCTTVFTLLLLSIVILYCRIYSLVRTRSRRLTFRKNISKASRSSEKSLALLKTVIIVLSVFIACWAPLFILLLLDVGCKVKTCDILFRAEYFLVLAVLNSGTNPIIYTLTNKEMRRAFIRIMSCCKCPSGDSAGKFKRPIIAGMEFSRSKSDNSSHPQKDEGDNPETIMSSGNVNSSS

Row | Structure (SMILES) | EC50
23 | CCCc1ccc(COc2ccc3c(c2)CCC(CN2CC(C(=O)O)C2)=C3C)c(OC)c1 [Compound 1, ceralifimod] | 11.8 nM
